The values that follow come from US20090036514A1, “Therapeutic effects of Bryostatins, Bryologs, and other related substances on Ischemia/stroke-induced memory impairment and brain injury” (priority 2007, published 2009).

In one data set the target is protein kinase C. The settings on record: (−)-enantiomer; cited from earlier work.
A further data set deals with T1, PKCε (Homo sapiens, UniProt Q02156).
T1 sequence (Q02156 1-737): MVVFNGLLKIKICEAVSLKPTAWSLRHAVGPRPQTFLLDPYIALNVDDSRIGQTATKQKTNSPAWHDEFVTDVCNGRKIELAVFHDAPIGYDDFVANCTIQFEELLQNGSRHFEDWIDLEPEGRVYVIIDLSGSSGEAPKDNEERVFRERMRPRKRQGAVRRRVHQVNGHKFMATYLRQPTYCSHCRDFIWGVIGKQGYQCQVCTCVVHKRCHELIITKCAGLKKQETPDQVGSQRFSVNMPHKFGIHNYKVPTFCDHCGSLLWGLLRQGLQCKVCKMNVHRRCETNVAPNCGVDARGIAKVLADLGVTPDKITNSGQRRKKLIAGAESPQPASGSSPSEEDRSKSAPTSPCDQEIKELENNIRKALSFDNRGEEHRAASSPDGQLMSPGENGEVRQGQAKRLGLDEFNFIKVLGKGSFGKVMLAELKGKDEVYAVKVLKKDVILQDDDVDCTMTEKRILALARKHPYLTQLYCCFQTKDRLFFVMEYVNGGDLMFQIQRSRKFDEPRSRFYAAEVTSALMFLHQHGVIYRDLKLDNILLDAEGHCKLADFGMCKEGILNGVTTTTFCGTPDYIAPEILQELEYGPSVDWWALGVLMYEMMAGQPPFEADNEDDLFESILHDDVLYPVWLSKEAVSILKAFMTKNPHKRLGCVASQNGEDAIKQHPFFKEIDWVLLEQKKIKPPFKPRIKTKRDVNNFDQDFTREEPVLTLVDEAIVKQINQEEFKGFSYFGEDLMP
The settings on record: cited from earlier work.

Data set [1] addresses PKC. The settings on record: [3H]phorbol dibutyrate; read-out: Ki for binding; cited from earlier work.
The conditions of data set [2]: humans; cited from earlier work.
Data set [3] has as its system cerebral ischemia/hypoxia-induced learning and memory impairment. As to the kind of experiment: water maze spatial learning and memory after global cerebral ischemia/hypoxia (Example 3). It counts as in vivo, rat. Here is the method: Global cerebral ischemia/hypoxia was induced in male Wistar rats (225-250 g) by permanently occluding the bilateral common carotid arteries, combined with about 14 minutes of low oxygen (about 5%). […] Spatial learning (2 trials/ day for 4 days) and memory (a probe test of 1 minute, 24 hours after the last trial) task was performed 9 days after the last dose. Overall, there was a significant difference between the groups (F3,255=31.856, p<0.001) and groups x trials (F21,255=1.648, p<0.05). Global cerebral ischemia impaired the spatial learning (ischemial vs. sham-operated F1,127=[…]).

In data set [4] the test system is cerebral ischemia-induced memory impairment. As to the kind of experiment: water maze spatial learning and probe test after global ischemia (Example 2). The following applies: for water maze spatial learning, ischemic with treatment vs. control rats: trained one week after last dose; for water maze spatial learning, ischemic with treatment vs. ischemic rats: treatment started 24 hours after hypoxia, bryostatin-1 20 μg/m^2 i.v. 2 doses/week 10 doses, MCDA 1.0 mg/kg i.p. daily 5 weeks. It counts as in vivo, rat. Here is the method: Rats (male, Wistar, 200-225 g) were randomly divided into 6 groups (8 each) and housed for 1 week before experimentation. Transient or permanent restriction of cerebral blood flow and oxygen supply results in ischemic stroke. The global ischemia model used to induce vascular memory impairment was two-vessel occlusion combined with a short term systemic hypoxia. Ligation of the bilateral common carotid arteries was performed under anesthesia (pentobarbital, 60 mg/kg, i.p.). After a one-week recovery from the surgery, rats were exposed to 14-min hypoxia (5% oxygen in a glass jar). Control rats (sham operated and vehicle controls) were subjected to the same incision to isolate both common carotid arteries and to 14-min air (in the glass jar). Body temperature was kept at 37-37.5° C. using a heating light source during the surgical procedure and until the animals were fully recovered.
4-Methylcatechol-diacetic acid (MCDA, a potential NGF and BDNF booster) was administered at 1.0 mg/kg (i.p., daily for the same 5-week period) in separate groups of rats.
A visible platform test was given after the probe test.

Data set [5] relates to squamous cell carcinoma and melanoma. The following applies: used topically; cited from earlier work.
The subject of another data set is NCI 60 cell line screen. The settings on record: cited from earlier work.
The target of data set [6] is PKC. The following applies: A-ring bryologs; read-out: affinity for PKC; cited from earlier work.
The subject of data set [7] is cyclin dependent kinase 2 (Cdk2). The following applies: at 5 ng/ml; cited from earlier work.
Data set [8] has as its system PKC. The settings on record: K562 cells; cited from earlier work.
Data set [9] concerns murine leukemias and solid tumors. The following applies: cited from earlier work.
The mark [10] stands for this setting: non-ischemic rats, same regimens.

Read-outs that look alike come from different tables or passages of the source.

On to `CCCCCCCCc1ccc2c3c(c[nH]c13)C[C@@H](CO)NC(=O)[C@H](C(C)C)N2C` [Octylindolactam V], for which the EC50 (in general, the concentration giving half of the maximal effect) on protein kinase C is 29 nM.

With `CCCCCC1CC1CC1CC1CCCCCCCC(=O)O` (stereo not shown) [DCP-LA, 2-[(2-pentylcyclopropyl)methyl] cyclopropaneoctanoic acid], the “concentration of maximal effect on PKCε activation” value at PKCε is recorded as 100 nM.

On to `CC1=C[C@]23C(=O)[C@@H](C=C(COC(=O)c4ccccc4)[C@@H](O)[C@]2(O)[C@H]1OC(=O)c1ccccc1)[C@H]1[C@@H](C[C@H]3C)C1(C)C` [Ingenol 3,20-dibenzoate], for which the Ki at PKC [1] was 240 nM.

`CCCC=CC=CC(=O)OC1C(=CC(=O)OC)CC2CC(C(C)O)OC(=O)CC(O)CC3CC(OC(C)=O)C(C)(C)C(O)(CC4CC(=CC(=O)OC)CC(C=CC(C)(C)C1(O)O2)O4)O3` (stereo not shown) [Bryostatin 1, bryostatin-1]: the main adverse reaction result in data set [2] is listed as “myalgia”. In addition, the “target quadrant preference, Bryostatin-1 alone vs. sham-operated” value in data set [3] (15 μg/m^2) was “no significant effects”. Also, the “spatial learning, Bryostatin-1 alone vs. sham-operated” value in data set [3] (15 μg/m^2, 9 days after the last dose) is listed as “did not affect the learning”. In addition, the “memory retention test after ischemia” value in [3] (15 μg/m^2, probe test 24 hours after last trial) is reported as “effectively restored memory retention after ischemia to the level of the sham-operated rats”. Moreover, in data set [3] (15 μg/m^2 tail vein, 2 doses/week, 10 doses, from about 24 hours after ischemia, tested 9 days after last dose), the “spatial learning impairment, Bryostatin-1+Ischemia vs. Ischemia” value is given as “restored”. Moreover, in [4] (setting [10]), the “water maze spatial learning, compound-only vs. control rats” value is “no differences”. Also, in data set [4] (same regimens), the “water maze spatial learning, ischemic with treatment vs. control rats” value was “did not differ statistically from the control rats”. In addition, the “water maze spatial learning, ischemic with treatment vs. ischemic rats” value in data set [4] was “greatly improved the performance”.

For the compound `C/C=C(/C)C(=O)O[C@H]1C(C)=C[C@]23C(=O)[C@@H](C=C(CO)[C@@H](O)[C@]12O)[C@H]1[C@@H](C[C@H]3C)C1(C)C` [Ingenol-3-angelate], the antitumor activity entry in data set [5] is reported as “possesses antitumor activity”.

On to `CC1=CC[C@H](C)C(C)(C)[C@@H]1/C=C/C(C)=C/CC[C@@]1(CO)[C@H](CCCO)/C(=C(/C)C=O)CC[C@]1(C)O` [Iripallidal], for which the “GI50 (concentration required to inhibit growth by 50%)” value in the data set with NCI 60 cell line screen was “from micromolar to nanomolar range”.

In the case of `Cc1ccc(OCC(=O)O)c(OCC(=O)O)c1` [MCDA, 4-Methylcatechol-diacetic acid], in data set [4] (setting [10]), the “target quadrant ratio in probe test, compound-only vs. control rats” value was “no differences” and the “water maze spatial learning, compound-only vs. control rats” value was “no differences”. Further, in data set [4] (same regimens), the “target quadrant ratio in probe test, ischemic with treatment vs. control rats” value is recorded as “no differences”; the “target quadrant ratio in probe test, ischemic with treatment vs. ischemic rats” value is listed as “group differences”; the “water maze spatial learning, ischemic with treatment vs. control rats” value is reported as “remained significant”. The “water maze spatial learning, ischemic with treatment vs. ischemic rats” value in data set [4] is recorded as “improved the learning of the ischemic rats”.

In the case of `CCCCCCCC(=O)OC1C(=CC(=O)OC)CC2CC(CO)OC(=O)CC(O)CCOC(C(C)(C)C)CC3CCOC(C=CC(C)(C)C1(O)O2)O3` (stereo not shown) [bryolog 3], the Ki on PKC [6] was 6.5 nM.

As to `CCCCCCCC(=O)OC1C(=CC(=O)OC)CC2CC(CO)OC(=O)CC(O)CCOC(c3ccccc3)CC3CCOC(C=CC(C)(C)C1(O)O2)O3` (stereo not shown) [bryolog 4], the Ki on PKC [6] is 2.3 nM.

With `C=C(C)C12C[C@@H](COC(=O)c3ccccc3)[C@@]34OC5(O[C@@H]1[C@@H]3C1O[C@]1(CO)[C@@H](O)[C@@]1(O)[C@H]4[C@@H](C(C)CCCCCC[C@H]5O)C(C)[C@@H]1OC(=O)c1ccccc1)O2` (stereo partly shown) [Gnidimacrin], in data set [7], the “inhibition of Cdk2” value is 100%. For the same compound, the “concentration acting as PKC activator” value in the data set with PKC [8] is given as “≈ 3 nM”. Further, the “concentrations with potent antitumor activity” value in data set [9] was 0.1 to 1 nM.

With `CCCCCCCC(=O)OC1C(=CC(=O)OC)CC2CC(CO)OC(=O)CC(O)CCOC(CCCc3ccc(Br)cc3)CC3CCOC(C=CC(C)(C)C1(O)O2)O3` (stereo not shown) [bryolog 5], at PKC [6], the Ki is 1.9 nM.
